Measurements published in patent EP0377967A2, “9-Aza-3-(oxa/thia)-bicyclo[3,2,1]nonane derivatives, process and intermediates for their preparation and pharmaceutical compositions containing them” (BEECHAM GROUP PLC, priority 1988, dated 1990).

test system: von Bezold-Jarisch reflex evoked by 5-HT; test: Antagonism of the von Bezold-Jarisch reflex; format: in vivo; settings: anaesthetised rat; dose of 1µg/kg i.v.
Experimental: The compounds were evaluated for antagonism of the von Bezold-Jarisch reflex evoked by 5-HT in the anaesthetised rat according to the following method:
Male rats 250-350g, were anaesthetised with urethane (1.25g/kg intraperitoneally) and blood pressure and heart rate recorded as described by Fozard J.R. et al., J. Cardiovasc. Pharmacol. 2, 229-245 (1980). A submaximal dose of 5-HT (usually 6µg/kg) was given repeatedly by the intravenous route and changes in heart rate quantified. Compounds were given intravenously and the concentration required to reduce the 5-HT-evoked response to 50% of the control response (ED₅₀) was then determined.

Structure (SMILES) | activity (antagonism of the von Bezold-Jarisch reflex)
CN1C2COCC1CC(NC(=O)N1CC(C)(C)c3ccccc31)C2 (stereo not drawn) [Example E5, endo-N-(9-Methyl-9-aza-3-oxabicyclo[3.3.1]nonan-7-yl)-3,3-dimethyl-1-indoline carboxamide] | active
CN1C2COCC1CC(NC(=O)c1nn(C)c3ccccc13)C2 (stereo not drawn) [Example E4, endo-N-(9-Methyl-9-aza-3-oxabicyclo[3.3.1]nonan-7-yl)-1-methyl-1H-indazol-3-carboxamide] | active
COc1ccccc1NC(=O)NC1CC2COCC(C1)N2C (stereo not drawn) [Example E3, endo-N-(9-Methyl-9-aza-3-oxabicyclo[3.3.1]nonan-7-yl)-N′-(2-methoxyphenyl)urea] | active
